Source: patent publication US12157882B2, “Lactobacillus plantarum strain ATG-K2, ATG-K6 or ATG-K8, and composition for preventing or treating vaginitis comprising same” (ATOGEN CO., LTD, priority 2018, dated 2024)

Assay: Heat resistance: viable cell count while bathing at 70° C. in a water bath
Format: physicochemical
Procedure: In order to investigate the heat resistance of lactic-acid bacteria of the present disclosure, samples were obtained at 20 sec, 40 sec, 60 sec, and 80 sec while bathing at 70° C. in a water bath, a viable cell count was taken to thus determine resistance to heat, and the results thereof are shown in Table 2 below and in FIG. 2. In Table 2 and in FIG. 2, a viable cell count is represented as a Log10 CFU/ml value, and the number in parentheses represents the viability (%) compared to the initial count. Each result value is the average of three independent experiments.

[1] = Initial, average of three independent experiments

| Substance | viability compared to the initial count (70° C. water bath, 20 sec) | viable cell count (70° C. water bath, 20 sec) | viability compared to the initial count (70° C. water bath, 40 sec) | viable cell count (70° C. water bath, 40 sec) | viability compared to the initial count (70° C. water bath, 60 sec) | viable cell count (70° C. water bath, 60 sec) | viability compared to the initial count (70° C. water bath, 60 sec, listed as K2) | viability compared to the initial count (Initial) | viable cell count [1] | viability compared to the initial count (70° C. water bath, 60 sec, listed as K6) | viability compared to the initial count (70° C. water bath, 60 sec, listed as K8) |
| --- | --- | --- | --- | --- | --- | --- | --- | --- | --- | --- | --- |
| Lactobacillus plantarum ATG-K2 [Lb. plantarum ATG-K2] | (109.65% | 8.99 Log10 CFU/ml | (91.33% | 8.92 Log10 CFU/ml | (70.95% | 8.80 Log10 CFU/ml | 70.95% | (100.00% | 8.95 Log10 CFU/ml |  |  |
| Lactobacillus plantarum ATG-K6 [Lb. plantarum ATG-K6] | (97.27% | 9.43 Log10 CFU/ml | (87.46% | 9.38 Log10 CFU/ml | (68.88% | 9.28 Log10 CFU/ml |  | (100.00% | 9.44 Log10 CFU/ml | 68.88% |  |
| Lactobacillus plantarum ATG-K8 [Lb. plantarum ATG-K8] | (89.67% | 9.49 Log10 CFU/ml | (75.26% | 9.41 Log10 CFU/ml | (74.32% | 9.41 Log10 CFU/ml |  | (100.00% | 9.55 Log10 CFU/ml |  | 74.32% |
